This passage reports IC50 results from patent US11814367B2, “Inhibitors of glycogen synthase 1 (GYS1) and methods of use thereof” (Maze Therapeutics, Inc., priority 2021, dated 2023).

Each structure is given as a SMILES string. Some results are limits rather than exact numbers.

The target in assay [1] is hGYS2 enzyme (recombinant hGYS2/GN1 protein) (Homo sapiens (Human), UniProt P54840). As to the kind of experiment: GYS2 coupled enzyme assay (PK/LDH). As to conditions: geometric mean of at least 2 assay runs on separate days, read-out: Avg_IC50. The format is biochemical. In short, it runs like this:
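IC50 came from Hill fits of duplicate percent inhibition, based on control-normalized slopes of 340 nm NADH decline read each minute for 10 min. The reaction held recombinant hGYS2/GN1 (200 nM) with glycogen, UDP-glucose, G6P and PEP, plus PK/LDH coupling at pH 7.5 and 2.5% DMSO.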

The subject of assay [2] is hGYS1 enzyme / glycogen synthesis in HeLa cells. As to the kind of experiment: GYS1 cell based assay (glycogen synthesis, Glucose-glo). Also on record: species or system human. The conditions noted are these: Homo sapiens, 24 h incubation, 20 mM glucose, geometric mean of at least 2 runs. In outline:
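HeLa cells starved 24 h in medium containing only 1× Glutamax were plated onto compound in medium with 20 mM glucose (1% DMSO final) for 24 h, 37 °C, 5% CO2. Acid lysates were Tris-quenched, glucoamylase-digested (pH 5.3, 1 h, 37 °C) and read by Glucose-glo luminescence. IC50 came from Hill fits, as geometric mean of ≥2 runs.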

Assay [3] deals with hGYS1 enzyme (recombinant hGYS1/GN1 protein) (Homo sapiens (Human), UniProt P13807). As to the kind of experiment: GYS1 coupled enzyme assay (PK/LDH). The format is biochemical. As to conditions: hGYS1/GN1 50 nM, UDP-Glucose 0.8 mM, G6P 1 mM; geometric mean of at least 2 runs.
Chain of hGYS1 enzyme (recombinant hGYS1/GN1 protein) (P13807 whole entry): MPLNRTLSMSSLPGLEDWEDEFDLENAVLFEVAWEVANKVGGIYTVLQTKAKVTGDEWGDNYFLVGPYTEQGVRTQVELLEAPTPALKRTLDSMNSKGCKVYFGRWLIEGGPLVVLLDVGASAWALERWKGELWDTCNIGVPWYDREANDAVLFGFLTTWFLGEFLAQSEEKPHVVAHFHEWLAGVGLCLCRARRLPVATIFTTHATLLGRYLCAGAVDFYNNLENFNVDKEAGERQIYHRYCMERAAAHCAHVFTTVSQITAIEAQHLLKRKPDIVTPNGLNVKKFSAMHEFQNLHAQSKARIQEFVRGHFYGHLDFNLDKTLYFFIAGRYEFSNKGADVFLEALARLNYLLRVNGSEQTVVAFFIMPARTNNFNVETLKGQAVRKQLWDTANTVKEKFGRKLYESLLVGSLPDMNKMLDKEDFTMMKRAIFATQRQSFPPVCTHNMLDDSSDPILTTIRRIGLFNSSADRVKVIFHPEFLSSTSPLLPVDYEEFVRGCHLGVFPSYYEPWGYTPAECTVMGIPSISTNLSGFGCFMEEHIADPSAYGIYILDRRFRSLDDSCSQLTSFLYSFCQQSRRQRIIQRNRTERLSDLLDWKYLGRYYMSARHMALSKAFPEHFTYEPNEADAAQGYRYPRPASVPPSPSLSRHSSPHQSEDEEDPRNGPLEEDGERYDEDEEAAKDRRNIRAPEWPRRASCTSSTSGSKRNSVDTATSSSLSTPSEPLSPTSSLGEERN
Chain of hGYS1 enzyme (recombinant hGYS1/GN1 protein) (P46976 whole entry partner): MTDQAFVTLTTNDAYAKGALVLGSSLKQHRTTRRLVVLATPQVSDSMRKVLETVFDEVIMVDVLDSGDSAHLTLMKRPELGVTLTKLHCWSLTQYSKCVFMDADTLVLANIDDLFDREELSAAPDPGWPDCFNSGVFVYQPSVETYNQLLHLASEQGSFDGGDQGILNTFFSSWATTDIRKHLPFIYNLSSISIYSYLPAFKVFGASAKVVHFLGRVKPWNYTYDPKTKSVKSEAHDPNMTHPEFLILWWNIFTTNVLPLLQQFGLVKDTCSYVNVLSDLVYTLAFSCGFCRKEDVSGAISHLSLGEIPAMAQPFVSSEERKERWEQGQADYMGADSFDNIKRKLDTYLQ

Chain of hGYS2 enzyme (recombinant hGYS2/GN1 protein) (P54840 whole entry): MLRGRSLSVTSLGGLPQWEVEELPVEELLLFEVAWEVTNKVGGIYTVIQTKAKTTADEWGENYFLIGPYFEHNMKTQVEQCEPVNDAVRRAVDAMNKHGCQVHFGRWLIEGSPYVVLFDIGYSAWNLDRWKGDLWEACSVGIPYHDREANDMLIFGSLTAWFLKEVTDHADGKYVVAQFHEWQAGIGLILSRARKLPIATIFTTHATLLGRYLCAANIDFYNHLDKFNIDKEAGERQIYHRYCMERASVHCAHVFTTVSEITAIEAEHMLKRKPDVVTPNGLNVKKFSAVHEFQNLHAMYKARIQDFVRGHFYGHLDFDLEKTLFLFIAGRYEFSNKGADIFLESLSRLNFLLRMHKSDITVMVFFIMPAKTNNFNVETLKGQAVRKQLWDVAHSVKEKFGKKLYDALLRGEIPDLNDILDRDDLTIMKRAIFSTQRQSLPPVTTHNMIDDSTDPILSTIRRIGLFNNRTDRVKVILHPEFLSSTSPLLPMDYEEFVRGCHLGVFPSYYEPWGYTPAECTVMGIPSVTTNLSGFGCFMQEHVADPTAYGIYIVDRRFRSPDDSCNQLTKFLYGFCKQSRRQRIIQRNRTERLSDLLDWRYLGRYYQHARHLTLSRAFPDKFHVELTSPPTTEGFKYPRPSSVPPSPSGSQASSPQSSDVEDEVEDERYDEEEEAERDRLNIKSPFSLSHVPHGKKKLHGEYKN
Chain of hGYS2 enzyme (recombinant hGYS2/GN1 protein) (P46976 whole entry partner): as the sequence (P46976 whole entry partner) above

As to `CC1(c2ccc([C@@H](NC(=O)[C@@H]3C[C@@H](F)CN3C(=O)Cn3nnc4ccccc43)c3ccccc3)nc2F)CC1` [Compound 594, (2S,4R)-1-[2-(1H-1,2,3-benzotriazol-1-yl)acetyl]-4-fluoro-N-[(S)-[6-fluoro-5-(1-methylcyclopropyl)pyridin-2-yl](phenyl)methyl] pyrrolidine-2-carboxamide], the IC50 in assay [1] was more than 100000 nM; in assay [2] (HeLa, 24 h), 720 nM; in assay [3], 50 nM.
`CC1(c2ccc([C@@H](NC(=O)[C@@H]3C[C@@H](F)CN3C(=O)Cn3cnc4ccccc43)c3ccccc3)nc2F)CC1` [Compound 595, (2S,4R)-1-[2-(1H-1,3-benzodiazol-1-yl)acetyl]-4-fluoro-N-[(S)-[6-fluoro-5-(1-methylcyclopropyl)pyridin-2-yl](phenyl)methyl] pyrrolidine-2-carboxamide]: the IC50 is more than 100000 nM in assay [1]; 460 nM in assay [2] (HeLa, 24 h); 25 nM in assay [3].
For the molecule `Cn1nc(CC(=O)N2C[C@H](F)C[C@H]2C(=O)N[C@@H](c2ccccc2)c2ccc(C3(C)CC3)c(F)n2)c2ccccc21` [Compound 596, (2S,4R)-4-fluoro-N-[(S)-[6-fluoro-5-(1-methylcyclopropyl)pyridin-2-yl](phenyl)methyl]-1-[2-(1-methyl-1H-indazol-3-yl)acetyl]pyrrolidine-2-carboxamide], the IC50 in assay [1] was more than 96700 nM; in assay [2] (HeLa, 24 h), 280 nM; in assay [3], 20 nM.
Taken in the same sequence, the figures for `CN1C(=O)C(CC(=O)N2C[C@H](F)C[C@H]2C(=O)N[C@@H](c2ccccc2)c2ccc(C3(C)CC3)c(F)n2)c2ccccc21` (stereo partly drawn) [Compound 597, (2S,4R)-4-fluoro-N-[(S)-[6-fluoro-5-(1-methylcyclopropyl)pyridin-2-yl](phenyl)methyl]-1-[2-(1-methyl-2-oxo-2,3-dihydro-1H-indol-3-yl)acetyl]pyrrolidine-2-carboxamide] were more than 100000 nM, 1320 nM and 64 nM.
With `CC1(c2ccc([C@@H](NC(=O)[C@@H]3C[C@@H](F)CN3C(=O)Cn3c(=O)[nH]c4ccccc43)c3ccccc3)nc2F)CC1` [Compound 599, (2S,4R)-4-fluoro-N-[(S)-[6-fluoro-5-(1-methylcyclopropyl)pyridin-2-yl](phenyl)methyl]-1-[2-(2-oxo-2,3-dihydro-1H-1,3-benzodiazol-1-yl)acetyl]pyrrolidine-2-carboxamide], the IC50 in assay [1] was more than 100000 nM; in assay [2] (HeLa, 24 h), 720 nM; in assay [3], 40 nM.
Regarding `Cn1c(=O)n(CC(=O)N2C[C@H](F)C[C@H]2C(=O)N[C@@H](c2ccccc2)c2ccc(C3(C)CC3)c(F)n2)c2ccccc21` [Compound 600, (2S,4R)-4-fluoro-N-[(S)-[6-fluoro-5-(1-methylcyclopropyl)pyridin-2-yl](phenyl)methyl]-1-[2-(3-methyl-2-oxo-2,3-dihydro-1H-1,3-benzodiazol-1-yl)acetyl]pyrrolidine-2-carboxamide], the IC50 in assay [1] was more than 100000 nM; in assay [2] (HeLa, 24 h), 620 nM; in assay [3], 36 nM.
Regarding `Cc1cc([C@@H](NC(=O)[C@@H]2C[C@@H](F)CN2C(=O)Cc2nnc(C(F)F)o2)c2ccccc2)ncc1C(C)C` [Compound 602, (2S,4R)-1-(2-(5-(difluoromethyl)-1,3,4-oxadiazol-2-yl)acetyl)-4-fluoro-N—((S)-(5-isopropyl-4-methylpyridin-2-yl)(phenyl)methyl)pyrrolidine-2-carboxamide], the IC50 is more than 100000 nM in assay [1]; 760 nM in assay [2] (HeLa, 24 h); 92 nM in assay [3].
`CC(C)c1c(F)cc([C@@H](NC(=O)[C@@H]2C[C@@H](F)CN2S(=O)(=O)Cc2cnn[nH]2)c2ccccc2)cc1F` [Compound 659, (2S,4R)-1-(((1H-1,2,3-triazol-5-yl)methyl)sulfonyl)-N—((S)-(3,5-difluoro-4-isopropylphenyl)(phenyl)methyl)-4-fluoropyrrolidine-2-carboxamide]: the IC50 in assay [1] came out at 17500 nM; in assay [2], 4350 nM; in assay [3] it was 331 nM.
Take `CC(C)c1c(F)cc([C@@H](NC(=O)[C@@H]2C[C@@H](F)CN2C(=O)Cn2cnnn2)c2ccccc2)cc1F` [Compound 669, (2S,4R)-N-[(S)-[3,5-difluoro-4-(propan-2-yl)phenyl](phenyl)methyl]-4-fluoro-1-[2-(1H-1,2,3,4-tetrazol-1-yl)acetyl]pyrrolidine-2-carboxamide]: the IC50 in assay [1] was more than 100000 nM; in assay [2] (HeLa, 24 h) it was 470 nM; in assay [3], 40 nM.
For `Cc1cc([C@@H](NC(=O)[C@@H]2C[C@@H](F)CN2C(=O)Cc2cnn[nH]2)c2ccccc2)ccc1C(C)C` [Compound 670, (2S,4R)-4-fluoro-N-[(S)-[3-methyl-4-(propan-2-yl)phenyl](phenyl)methyl]-1-[2-(1H-1,2,3-triazol-5-yl)acetyl]pyrrolidine-2-carboxamide], the IC50 in assay [1] is more than 100000 nM; in assay [2] (HeLa, 24 h), 660 nM; in assay [3], 71 nM.
Taken in the same sequence, the figures for `CC(C)c1ccc([C@@H](NC(=O)[C@@H]2C[C@@H](F)CN2C(=O)Cc2cnn[nH]2)c2ccccc2)cc1Cl` [Compound 672, (2S,4R)-N-[(S)-[3-chloro-4-(propan-2-yl)phenyl](phenyl)methyl]-4-fluoro-1-[2-(1H-1,2,3-triazol-5-yl)acetyl]pyrrolidine-2-carboxamide] were more than 100000 nM, 1220 nM and 82 nM.
`CC(C)c1ccc([C@@H](NC(=O)[C@@H]2C[C@@H](F)CN2C(=O)Cc2cnn[nH]2)c2ccccc2)cc1C(F)F` [Compound 679, (2S,4R)-N-[(S)-[3-(difluoromethyl)-4-(propan-2-yl)phenyl](phenyl)methyl]-4-fluoro-1-[2-(1H-1,2,3-triazol-5-yl)acetyl]pyrrolidine-2-carboxamide]: the IC50 is more than 100000 nM in assay [1]; 8490 nM in assay [2] (HeLa, 24 h); 577 nM in assay [3].
As to `CC1(c2ccc([C@@H](NC(=O)[C@@H]3C[C@@H](F)CN3C(=O)Cc3cnn[nH]3)c3ccccc3)cc2F)CCC1` [Compound 681, (2S,4R)-4-fluoro-N-[(S)-[3-fluoro-4-(1-methylcyclobutyl)phenyl](phenyl)methyl]-1-[2-(1H-1,2,3-triazol-5-yl)acetyl]pyrrolidine-2-carboxamide], the IC50 in assay [1] is more than 100000 nM; in assay [2] (HeLa, 24 h), 430 nM; in assay [3], 30 nM.
On to `CC(C)(C)c1ccc([C@@H](NC(=O)[C@@H]2C[C@@H](F)CN2C(=O)Cc2cnn[nH]2)c2ccccc2)cc1F` [Compound 685, (2S,4R)-N-[(S)-(4-tert-butyl-3-fluorophenyl)(phenyl)methyl]-4-fluoro-1-[2-(1H-1,2,3-triazol-5-yl)acetyl]pyrrolidine-2-carboxamide], for which the IC50 in assay [1] is more than 100000 nM; in assay [2] (HeLa, 24 h), 2710 nM; in assay [3] it was 204 nM.
For the molecule `CC(C)c1ccc([C@@H](NC(=O)[C@@H]2C[C@@H](F)CN2C(=O)Cc2cnn[nH]2)c2cccc(-c3ccn[nH]3)c2)nc1F` [Compound 686, (2S,4R)-1-(2-(1H-1,2,3-triazol-5-yl)acetyl)-N—((S)-(3-(1H-pyrazol-5-yl)phenyl)(6-fluoro-5-isopropylpyridin-2-yl)methyl)-4-fluoropyrrolidine-2-carboxamide], the IC50 in assay [1] is more than 100000 nM; in assay [2] (HeLa, 24 h), 640 nM; in assay [3] it was 13 nM.
For the molecule `CC(C)c1ccc([C@@H](NC(=O)[C@@H]2C[C@@H](F)CN2C(=O)Cc2nn(C)c(=O)n2C)c2ccccc2)nc1` [Compound 710, (2S,4R)-1-[2-(1,4-dimethyl-5-oxo-4,5-dihydro-1H-1,2,4-triazol-3-yl)acetyl]-4-fluoro-N-[(S)-phenyl[5-(propan-2-yl)pyridin-2-yl]methyl]pyrrolidine-2-carboxamide], the IC50 in assay [1] was more than 100000 nM; in assay [2] (HeLa, 24 h) it was 2340 nM; in assay [3], 146 nM.
With `CC(C)c1ccc([C@@H](NC(=O)[C@@H]2C[C@@H](F)CN2C(=O)Cn2cc(N3CCC3)nn2)c2ccccc2)nc1` [Compound 711, (2S,4R)-1-{2-[4-(azetidin-1-yl)-1H-1,2,3-triazol-1-yl]acetyl}-4-fluoro-N-[(S)-phenyl[5-(propan-2-yl)pyridin-2-yl]methyl]pyrrolidine-2-carboxamide], the IC50 in assay [1] was more than 100000 nM; in assay [2] (HeLa, 24 h), 630 nM; in assay [3], 30 nM.
For `Cn1c(CC(=O)N2C[C@H](F)C[C@H]2C(=O)N[C@@H](c2ccccc2)c2ccc(C3CC3)c(F)n2)noc1=O` [Compound 719, (2S,4R)-N-[(S)-(5-cyclopropyl-6-fluoropyridin-2-yl)(phenyl)methyl]-4-fluoro-1-[2-(4-methyl-5-oxo-4,5-dihydro-1,2,4-oxadiazol-3-yl)acetyl]pyrrolidine-2-carboxamide], the IC50 is more than 100000 nM in assay [1]; 2220 nM in assay [2] (HeLa, 24 h); 254 nM in assay [3].
As to `Cn1nc(CC(=O)N2C[C@H](F)C[C@H]2C(=O)N[C@@H](c2ccccc2)c2ccc(C3CC3)c(F)n2)n(C)c1=O` [Compound 722, (2S,4R)-N-[(S)-(5-cyclopropyl-6-fluoropyridin-2-yl)(phenyl)methyl]-1-[2-(1,4-dimethyl-5-oxo-4,5-dihydro-1H-1,2,4-triazol-3-yl)acetyl]-4-fluoropyrrolidine-2-carboxamide], the IC50 in assay [1] is more than 100000 nM; in assay [2] (HeLa, 24 h), 1450 nM; in assay [3], 85 nM.
